Here are results for 17 molecules from patent US11390625B2, “Aryl-phosphorus-oxygen compound as EGFR kinase inhibitor” (Chia Tai Tianqing Pharmaceutical Group Co., Ltd., priority 2017, dated 2022).

Series [1] is described as follows: Plasma, tumor and lung exposure in mice of the Ba/F3 CDX efficacy experiment. In kind it is in vivo. The note with it: mouse, 15.0 mg/kg/day oral. The protocol:
On Day 14 after administration to the groups for the efficacy experiment, the plasma was collected from the mice by submandibular blood collection before last administration and 2 hours after last administration, and the plasma samples were collected from the mice at 1 h, 4 h, 8 h and 24 h after administration. About 100 ul of blood was collected each time, placed in an anticoagulation tube, and centrifuged at 8000 rpm for 7 min, to collect plasma, which was stored at −80° C.

Series [2] deals with PC9 (EGFR-C797S/T790M/del19). The note with it: combination with panitumumab or cetuximab; Nature Communications 8:14768, 2017; cited from earlier work.
For the next series, the system named is A431 cells (EGFR WT). Briefly: Cell antiproliferation experiment (1), A431 cells, CellTiter Glo. In kind it is cell-based. Particulars: Homo sapiens, A-431, 72 h, read-out: anti-proliferation effect on cells A431 EGFR WT IC50. The protocol: 1) Cell Culture and Passage
(1) A431 medium: 88% DMEM+10% fetal bovine serum+1% L-glutamine+1% double-antibody
(2) A431 cells were isolated and passaged every 3-4 days, wherein the number of the cells for 3-day passage was 5e6 cells per T75 culture flask, and the number of the cells for 4-day passage was 3e6 cells per T75 culture flask.
2) Day 1: Preparation of Cell Plate
(1) Phosphate buffer, trypsin, and a culture medium were placed in a water bath at 37° C. to preheat.
(2) The original medium was removed from the cell culture flask and washed once with 6 mL of PBS.
(3) 5 mL of phosphate buffer was pipetted into the culture flask to rinse the cells (passage 17), and then the liquid was discarded.
(4) The cell culture flask was added with 3.5 mL of trypsin, and shaken gently, trypsin was removed after fully contact with the cells, and then the culture flask was placed in an incubator containing 5% CO2 at 37° C. for about 1 minute;
(5) The cells were resuspended in 10 mL cell culture medium, and about 0.6 mL of cell suspension was take out for counting (ViCell XR);
(6) The cell suspension was diluted with the medium to the cell density of 5e4 cells per ml, which was required for plating (cell concentration: 2500 cells per well);
(7) 100 μL of phosphate buffer solution was added to each well around the cell plate, while 50 μL of the cell suspension was added to other wells, and the plate was incubated overnight in a incubator containing 5% CO2 at 37° C.
(1) 9 μL of the compound (concentration: 1 mM) was added into a shallow well plate for Echo.
(2) The shallow well plate was centrifuged at 1000 rpm for 10 s and the cell plate was removed from the incubator.
(3) According to the layout of the microplate, the compounds was diluted with a three-fold concentration gradient using Echo, each compound was diluted to 10 concentration gradients and 250 nL of the diluted compounds was respectively added to the cell plate, and then the cell plate was returned to the incubator and further incubated for 3 days.
4) Day 5: Adding CTG and Reading the Plate
(1) After incubation for 72 h, 25 μL of CellTiter Glo was added to each well of the cell plate, followed by shaking the plate for 10 min in the dark.
(2) The plate was read on Envision.
Data analysis: By computer fitting, the corresponding concentration of the compound at 50% inhibition rate was read as the IC50 of the compound for inhibiting cell activity.

Series [3] has as its system pEGFR Ba/F3 (EGFR Δ19del/T790M/C797S) cells. Briefly: Cell phosphorylation inhibition experiment, pEGFR Ba/F3 (EGFR Δ19del/T790M/C797S). It counts as cell-based. Particulars: Ba/F3 EGFR; Ba/F3 cells, EGF stimulated; read-out: Effect on cellular EGFR phosphorylation Ba/F3(Δ19del/T790M/C797S) IC50. The procedure:
The test compounds and reference compounds were diluted with 100% DMSO to 10 mM or 1 mM, and then a gradient dilution was performed by using Echo, 150 nL per well, with a three-fold concentration gradient and a ten-point dose response curve. The final concentration of the compounds was 100 μM or 10 μM. The suspension cells was centrifuged at 1000 rp for 5 minutes, suspend in Hanks' balanced salt solution, and added to a 384-well plate containing the compounds at 10 L/120K/well (the cell density of 1.2×10^7), followed by centrifugation at 1200 rpm for 30 s and incubation at 37° C. for 30 min. 5 μL of EGF (which has been diluted with 0.1% BSA Hanks' balanced salt solution) was added to each well, in which the final concentration of EGF was 1 μM. The plate was centrifuged at 1200 rpm for 30 s and incubated at 37° C. for 20 min. 5 μL of 4× lysis buffer containing blocking solution was added to each well, and then the plate was centrifuged at 1200 rpm for 30 s, and incubated at 37° C. for 30 min.

Series [4] addresses EGFR (Δ19del/T790M/C797S) (Homo sapiens, UniProt P00533, C797S/T790M, form not given). Description: Enzyme activity experiment (1): EGFR (Δ19del/T790M/C797S) enzyme inhibition. Particulars: read-out: EGFR (Δ19del/T790M/C797S) IC50. It counts as biochemical. The procedure: 1) 10 μL of the compounds to be tested and reference compounds diluted to 10 mM were taken into an Echo LDV plate, which were diluted according to the compound profile with Echo.
1) 1×enzyme reaction buffer was prepared: 1× enzyme buffer, 5 mM MgCl2, 1 mM DTT (dithiothreitol), water.
2) A mixed solution of 10 nM enzyme (final concentration of 5 nM) and 2 μM substrate (final concentration of 1 μM) and a solution containing the substrate alone were prepared with the diluted enzyme reaction buffer.
3) 5 μL of the substrate was added into A1-H1, J24-P24 (the number of the well position), and 5 μL of the mixture of the enzyme and substrate was added into the remaining wells.
4) Centrifugation was performed at 1000 rpm at 23° C. for 30 s.
5) Incubation was performed at 23° C. for 15 min.
7) Centrifugation was performed at 1000 rpm at 23° C. for 30 s.
8) Incubation was performed at 23° C. for 60 min.
9) 10 μL of 250 nM TK Antibody-Crypate (a final concentration of 125 nM) and 1×D2 (a final concentration ½ time) prepared with Detection buffer were added.
10) Centrifugation was performed at 1000 rpm at 23° C. for 30 s.
11) Incubation was performed at 23° C. for 60 min.
12) The data was read with Envision, and the ratio was calculated to obtain the IC50 of the compound for inhibiting the enzyme activity.

Series [5] concerns Ba/F3 (EGFR Δ19del/T790M/C797S) cells. Briefly: Anti-proliferation experiment on cells (2), Ba/F3 (EGFR Δ19del/T790M/C797S). Particulars: Ba/F3 EGFR, 72 h; Ba/F3 cells, 3 days; read-out: anti-proliferation effect on cells Ba/F3(Δ19del/T790M/C797S) IC50. In kind it is cell-based. The procedure:
The compounds ware transferred to a 384-well plate, with 125 nL of compound per well. […] After 3 days, 25 μL of detection reagent was added. The plate was incubated at room temperature for 10 minutes and then read with Envision.

The test system of series [6] is L858R/T790M/C797S mutations model. Particulars: combined with EGFR monoclonal antibody such as cetuximab; Nature 534, 129-132, 2016; cited from earlier work.

Structures are written as SMILES. pIC50: −log10 of the molar value.

EGFR (Δ19del/T790M/C797S), sequence (P00533 25-1210 T790M/C797S limits assumed, form open): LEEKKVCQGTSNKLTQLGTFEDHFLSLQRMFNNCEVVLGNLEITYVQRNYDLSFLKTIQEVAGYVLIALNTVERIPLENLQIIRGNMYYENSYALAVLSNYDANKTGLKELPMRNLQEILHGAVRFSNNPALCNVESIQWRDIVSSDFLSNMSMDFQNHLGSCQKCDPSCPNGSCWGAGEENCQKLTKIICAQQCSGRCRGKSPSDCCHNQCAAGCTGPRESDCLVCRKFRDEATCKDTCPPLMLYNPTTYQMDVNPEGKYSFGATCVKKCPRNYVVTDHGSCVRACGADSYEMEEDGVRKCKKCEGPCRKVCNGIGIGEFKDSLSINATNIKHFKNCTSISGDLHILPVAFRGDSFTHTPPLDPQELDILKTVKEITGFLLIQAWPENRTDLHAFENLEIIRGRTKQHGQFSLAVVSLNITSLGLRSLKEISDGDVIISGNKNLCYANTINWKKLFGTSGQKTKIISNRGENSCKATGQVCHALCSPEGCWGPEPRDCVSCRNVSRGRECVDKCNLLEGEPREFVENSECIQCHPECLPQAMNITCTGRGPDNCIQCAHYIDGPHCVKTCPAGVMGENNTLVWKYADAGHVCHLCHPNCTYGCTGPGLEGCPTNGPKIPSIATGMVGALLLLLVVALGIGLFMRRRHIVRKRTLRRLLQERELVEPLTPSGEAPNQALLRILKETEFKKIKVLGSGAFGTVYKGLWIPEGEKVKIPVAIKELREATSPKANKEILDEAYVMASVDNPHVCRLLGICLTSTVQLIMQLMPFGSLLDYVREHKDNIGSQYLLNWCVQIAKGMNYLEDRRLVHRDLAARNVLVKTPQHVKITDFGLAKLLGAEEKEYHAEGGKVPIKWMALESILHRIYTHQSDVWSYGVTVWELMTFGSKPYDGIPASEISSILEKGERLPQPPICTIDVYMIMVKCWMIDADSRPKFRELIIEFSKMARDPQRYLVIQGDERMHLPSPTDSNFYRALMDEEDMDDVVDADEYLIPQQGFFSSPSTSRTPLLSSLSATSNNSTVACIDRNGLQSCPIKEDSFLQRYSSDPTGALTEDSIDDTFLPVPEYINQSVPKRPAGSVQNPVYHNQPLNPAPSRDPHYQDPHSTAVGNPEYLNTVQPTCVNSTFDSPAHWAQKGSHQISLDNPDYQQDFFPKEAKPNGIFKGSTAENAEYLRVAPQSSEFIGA

In general, AUC(0-t) refers to exposure summed from dosing to a finite time, without extrapolation to infinity. As usually defined, the half-life is how long it takes for the measured level to halve. A lower half-life goes with rapid decline. In series [1] (BALB/c nude, plasma), `COc1cc(N2CCC(N3CCN(C)CC3)CC2)ccc1Nc1ncc(Cl)c(Nc2ccccc2P(C)(C)=O)n1` [Brigatinib, reference compound] gave an AUC(0-t) of 32.8 µM·h and a half-life of 5.57 h. This molecule also gave a concentration at 2 h in series [1] (BALB/c nude, plasma, 2 h after administration) of 5.18 µM. In series [1] (2 h after administration), the “Lung, 2 h” value stood at 10217 nmol/kg and the “Tumor, 2 h” value amounted to 5807 nmol/kg. In series [2], the antitumor efficacy result is recorded as “good antitumor efficacy”.

Turning to `COc1cc(N2CCC3(CC2)CN(C)C3)c(C)cc1Nc1ncc(Cl)c(Nc2ccc3sccc3c2P(C)(C)=O)n1` [Compound 2], the pIC50 with A431 cells (EGFR WT) is 6.09; in series [3] it was 7.17; in series [4] it was 9.21; in series [5], 6.75.

On to `COc1cc(N2CCC(N3CCN(C)CC3)CC2)ccc1Nc1ncc(Cl)c(Nc2ccc3sccc3c2P(C)(C)=O)n1` [Compound 3], for which the pIC50 in the series with A431 cells (EGFR WT) was 5.49; in series [3], 6.73; in series [5], 6.20.

With `COc1cc(N2CCC3(CCN(C)CC3)CC2)c(Cl)cc1Nc1ncc(Cl)c(Nc2ccc3ccccc3c2P(C)(C)=O)n1` [Compound 4], the pIC50 with A431 cells (EGFR WT) was 5.43; in series [3], 6.56; in series [5] it was 6.25.

With `COc1cc(N2CCC3(CC2)CN(C)C3)ccc1Nc1ncc(Cl)c(Nc2ccc3ccccc3c2P(C)(C)=O)n1` [Compound 5], the pIC50 was 6.05 in the series with A431 cells (EGFR WT), 7.02 in series [3], 8.79 in series [4] and 6.50 in series [5].

With `COc1cc(N2CCC(N3CCN(C)CC3)CC2)ccc1Nc1ncc(Cl)c(Nc2ccc3ccccc3c2P(C)(C)=O)n1` [Compound 6], the pIC50 was 6.00 in the series with A431 cells (EGFR WT), 6.73 in series [3], 8.60 in series [4] and 6.44 in series [5].

As for `COc1cc(N2CCC3(CC2)CN(C)C3)c(C)cc1Nc1ncc(Cl)c(Nc2ccc3ccccc3c2P(C)(C)=O)n1` [Compound 9], the pIC50 in the series on A431 cells (EGFR WT) is 6.55; in series [3] it was 6.83; in series [4], 9.31; in series [5] it was 6.83.

For `COc1cc(N2CCC3(CC2)CN(C)C3)c(C)cc1Nc1ncc(Cl)c(Nc2ccc3cccnc3c2P(C)(C)=O)n1` [Compound 12], the pIC50 with A431 cells (EGFR WT) is 5.90; in series [3], 6.69; in series [5], 6.62.

`COc1cc(N2CCC3(CC2)CN(C)C3)c(C)cc1Nc1ncc(Cl)c(Nc2ccc3cnn(C)c3c2P(C)(C)=O)n1` [Compound 13]: the pIC50 was below 5.00 in the series on A431 cells (EGFR WT), 5.76 in series [3], 8.24 in series [4] and 5.44 in series [5].

`COc1cc(N2CCC3(CC2)CN(C)C3)c(C)cc1Nc1ncc(Br)c(Nc2ccc3ccccc3c2P(C)(C)=O)n1` [Compound 23]: the pIC50 in series [3] is 7.47; in series [4], 10.29; in series [5] it was 6.99.

As to `COc1cc(N2CCC3(CC2)CN(C)C3)c(C)cc1Nc1ncc(Br)c(Nc2ccc3nccnc3c2P(C)(C)=O)n1` [Compound 36], the pIC50 is 6.77 in the series on A431 cells (EGFR WT), 7.60 in series [3] and 7.35 in series [5].

With `COc1cc(N2CCC3(CC2)CN(CCN(C)C)C3)c(C)cc1Nc1cc(Nc2ccc3nccnc3c2P(C)(C)=O)c(Br)cn1` [Compound 37], the pIC50 in the series with A431 cells (EGFR WT) is 6.45; in series [3] it was 7.03; in series [5], 7.25.

Take `CCc1cc(Nc2ncc(Br)c(Nc3ccc4nccnc4c3P(C)(C)=O)n2)c(OC)cc1N1CCC2(CC1)CN(C)C2` [Compound 40]: the pIC50 in the series with A431 cells (EGFR WT) is 6.25; in series [3] it was 7.62; in series [5], 7.51.

For `O=C(Nc1nccs1)C(c1cc(F)ccc1O)N1Cc2ccccc2C1=O` (stereo not drawn) [EAI045], in series [6], the tumor inhibition effect entry is “better tumor inhibition effect”.

`COc1cc(N2CCC(N3CCN(C)CC3)CC2)ccc1Nc1ncc(Cl)c(Nc2ccc3nccnc3c2P(C)(C)=O)n1` [Example 59]: the pIC50 with A431 cells (EGFR WT) was 6.27; in series [3], 6.27; in series [5] it was 7.27.

Turning to `COc1cc(N2CCC(N3CCN(C)CC3)CC2)ccc1Nc1ncc(Br)c(Nc2ccc3nccnc3c2P(C)(C)=O)n1` [Example 60], the pIC50 in the series on A431 cells (EGFR WT) is 6.57; in series [3], 6.57; in series [5], 7.32.

Consider `COc1cc(N2CCC(N3CCN(C)CC3)CC2)c(C)cc1Nc1ncc(Cl)c(Nc2ccc3nccnc3c2P(C)(C)=O)n1` [Example 61], for which the pIC50 with A431 cells (EGFR WT) was 7.24; in series [3], 7.24; in series [5], 7.49.
